This is an account of results in PMC8677862, “Substrate binding modes of purine and pyrimidine nucleotides to human ecto-5′-nucleotidase (CD73) and inhibition by their bisphosphonic acid derivatives” (Purinergic Signalling, 2021).

Data set [1] deals with T1, CD73 (Homo sapiens, UniProt P21589, K145S/K147S/K478S/N311D/N333D/N403D/N53D/T376A).
T1 construct: His6 (C); made in house
T1 sequence (P21589 27-549 N53D/K145S/K147S/N311D/N333D/T376A/N403D/K478S limits assumed): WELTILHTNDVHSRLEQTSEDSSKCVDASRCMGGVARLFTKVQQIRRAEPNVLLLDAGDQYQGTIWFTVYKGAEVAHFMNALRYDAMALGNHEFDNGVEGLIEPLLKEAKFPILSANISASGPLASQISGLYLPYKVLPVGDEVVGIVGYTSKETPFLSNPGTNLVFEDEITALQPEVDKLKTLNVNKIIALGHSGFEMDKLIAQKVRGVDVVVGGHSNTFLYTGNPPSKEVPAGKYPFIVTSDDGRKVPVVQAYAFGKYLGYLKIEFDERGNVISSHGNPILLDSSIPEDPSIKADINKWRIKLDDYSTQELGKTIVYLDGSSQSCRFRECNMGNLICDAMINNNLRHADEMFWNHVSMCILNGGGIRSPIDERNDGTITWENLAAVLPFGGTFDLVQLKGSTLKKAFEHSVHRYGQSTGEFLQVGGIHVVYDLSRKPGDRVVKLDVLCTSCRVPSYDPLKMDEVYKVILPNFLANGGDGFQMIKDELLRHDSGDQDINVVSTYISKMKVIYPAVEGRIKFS
The data set is described as follows: Crystallographic fragment screening by crystal soaking, open form of CD73. It is filed as binding. The procedure:
Purified CD73 was concentrated to 7 mg/mL, and hanging drop crystallizations were set up versus 100 mM Tris pH 7.8 and 10% PEG6000, using equal amounts of protein and reservoir solution. Crystallisation experiments were carried out at 19 °C. Following crystal formation (1–2 days), the crystals were transferred to soaking solution containing reservoir solution with additional commercially available nucleotides or fragments (see Table S1) at concentrations between 2 and 100 mM. Crystals were then transferred to cryo solution containing an additional 20% glycerol, soaked for ~ 2–5 min and flash frozen in liquid nitrogen.
X-ray data collection was carried out at 100 K using a wavelength of 0.91841 Å on beamline 14.1 of the Berlin Synchrotron (BESSY, Berlin, Germany) equipped with a PILATUS 6 M detector [43]. All datasets were indexed, integrated, scaled and converted to structure factor amplitudes using XDSAPP [44] and AIMLESS [45]. The crystals belong to crystal form II of CD73 (pdb id 4h1y), which was used as a starting model for refinement. Coot and REFMAC5 [47] were used for model building and refinement. The final structures were validated using PROCHECK [48] and outliers in the Ramachandran plot were checked manually.
The HZB fragment library used for this work contains 102 compounds [41]. […] The presence of 12 compounds containing a nucleoside moiety in the fragment library contributed to the high hit rate of 23.5%.

For data set [2], the target named is CD73. As to conditions: competitive inhibitor of CD73, cited from earlier work.
The target in data set [3] is T1, CD73. The data set is described as follows: Michaelis–Menten kinetics of CD73-mediated AMP hydrolysis, malachite green assay. It is filed as biochemical. The following applies: AMP 5-200 μM, 1.25 ng CD73. The procedure:
In this study, enzyme activity and inhibition data was characterised using a modified malachite green assay. Each assay consisted of reaction buffer A (50 mM Tris–HCl pH 7.5, 100 mM NaCl, 1 mM MgCl2) to which the appropriate substrate and/or inhibitors (see Table S1) were added. Dissolved compounds were immediately used for the inhibition assays. The reactions were generally initiated by the addition of protein. The protein concentrations, substrates and inhibitors used for the various experiments are detailed below. In all experiments, reactions were monitored over a 10-min period during which samples were taken at regular intervals. At each desired time point, a malachite green/molybdate (1:1) solution was added to the sample, which simultaneously terminated the assay and also allowed the detection of the produced phosphate ions. These reaction mixtures were incubated at 25 °C for 25 min, followed by measurement of the absorbance at 620 nm. […]
The specific activity (μmol Pi/min/mg protein) was calculated from the initial reaction rates and was used to determine when the protein refolding process had reached completion. […] Kinetic values were determined by fitting the Michaelis–Menten equation to the initial reaction rates using GraphPad Prism (GraphPad Software, La Jolla, CA, USA). […]

Data set [4] relates to CD73. As to conditions: cited from earlier work; for Km: AMP as substrate; for specific activity: AMP; for turnover rate: substrate of CD73.
A further data set has as its target rat CD73. The following applies: cited from earlier work.
Details of data set [5]: method as in earlier work. As to conditions: last proton on the β-phosphonate group; cited from earlier work.
Data set [6] concerns the target T1, CD73. Put plainly: Substrate preference of CD73 for nucleoside monophosphates, malachite green assay. As to conditions: 1 mM substrate; for percentage activity relative to AMP (100%): 1.25 ng CD73; for decrease in absolute activity (relative to AMP) compared with the ribonucleotide equivalent: deoxyribo form vs ribo form. Type of data set: biochemical. The procedure: Each assay consisted of reaction buffer A (50 mM Tris–HCl pH 7.5, 100 mM NaCl, 1 mM MgCl2) to which the appropriate substrate and/or inhibitors (see Table S1) were added. Dissolved compounds were immediately used for the inhibition assays. The reactions were generally initiated by the addition of protein. The protein concentrations, substrates and inhibitors used for the various experiments are detailed below. In all experiments, reactions were monitored over a 10-min period during which samples were taken at regular intervals. At each desired time point, a malachite green/molybdate (1:1) solution was added to the sample, which simultaneously terminated the assay and also allowed the detection of the produced phosphate ions. These reaction mixtures were incubated at 25 °C for 25 min, followed by measurement of the absorbance at 620 nm. A standard curve (0–50 μM orthophosphate) was performed prior to each assay and was used to calculate the phosphate concentration. All measurements were carried out in triplicate. […] The specific activity (μmol Pi/min/mg protein) was calculated from the initial reaction rates and was used to determine when the protein refolding process had reached completion. […] Kinetic values were determined by fitting the Michaelis–Menten equation to the initial reaction rates using GraphPad Prism (GraphPad Software, La Jolla, CA, USA).

For data set [7], the target named is T1, CD73. The data set is described as follows: CD73 inhibition, malachite green assay. Type of data set: biochemical. The procedure: In this study, enzyme activity and inhibition data was characterised using a modified malachite green assay. Each assay consisted of reaction buffer A (50 mM Tris–HCl pH 7.5, 100 mM NaCl, 1 mM MgCl2) to which the appropriate substrate and/or inhibitors (see Table S1) were added. Dissolved compounds were immediately used for the inhibition assays. The reactions were generally initiated by the addition of protein. The protein concentrations, substrates and inhibitors used for the various experiments are detailed below. In all experiments, reactions were monitored over a 10-min period during which samples were taken at regular intervals. At each desired time point, a malachite green/molybdate (1:1) solution was added to the sample, which simultaneously terminated the assay and also allowed the detection of the produced phosphate ions. These reaction mixtures were incubated at 25 °C for 25 min, followed by measurement of the absorbance at 620 nm. A standard curve (0–50 μM orthophosphate) was performed prior to each assay and was used to calculate the phosphate concentration. All measurements were carried out in triplicate.
To study the inhibition kinetics of CD73 against a panel of commercially available nucleotide-diphosphate analogues (AMPCP, GMPCP, dUMPCP and CMPCP; see Table S1), their IC50 values were determined. In these tests, CD73 protein (1.25 ng) was incubated in reaction buffer A containing various inhibitor concentrations (0.015, 0.031, 0.061, 0.12, 0.24, 0.49, 0.98, 1.95, 3.91, 7.81, 15.62, 31.25, 62.5, 125, 250 and 500 μM). […] Dose–response curves were plotted in GraphPad Prism (GraphPad Prism Software, La Jolla, CA, USA), and the inflection point of each curve was used to determine the IC50 value of each inhibitor. The IC50 values were then used to calculate the Ki value of each inhibitor using the Cheng-Prusoff equation [51].

Each structure is given as a SMILES string. Values joined by “and” are separate entries in the source; they are usually repeats but may differ in a detail not shown here. Equal values may be shown once. Where a name gives a salt, the structure may show the parent alone. Read-outs that look alike come from different tables or passages of the source.

Regarding `O=[N+]([O-])c1ccc(O)c(O)c1` [4-nitrocatechol], the “binding to the nucleoside binding site (crystal structure)” value (from here on “binding to the nucleoside binding site”) at CD73 [1] is reported as “did bind to the nucleoside binding site”. As for `O=c1[nH]cc(I)c(=O)[nH]1` [5-iodouracil], the “binding to the nucleoside binding site” value at CD73 [1] was “did bind to the nucleoside binding site”.

What is called Ki is a dissociation constant, usually derived from enzyme kinetics or from competition with a known ligand. Turning to `Nc1ncnc2c1ncn2[C@@H]1O[C@H](COP(=O)(O)OP(=O)(O)O)[C@@H](O)[C@H]1O` [ADP], the Ki at CD73 [2] (ref 29) was 3880 nM; at CD73 [2] (ref 32) it was 82 nM; at CD73 [2] (ref 33) it was 910 nM. As a reminder, the Km is the concentration of substrate that gives half-maximal velocity. As for `Nc1ncnc2c1ncn2[C@@H]1O[C@H](COP(=O)(O)O)[C@@H](O)[C@H]1O` [AMP, Adenosine 5'-monophosphate], the Vmax on CD73 [3] is 301.2 ± 2.9 U/mg. Moreover, the Km in the data set with CD73 [4] (same construct after refolding) was 6.6 µM and 7 µM; in the data set with CD73 [4] (ref 8) it was 1 to 50 µM; in the data set on CD73 [4] (ref 29) it was 59 µM. Besides, the figures for the specific activity with CD73 [4] (human CD73 purified from an adenocarcinoma cell line) and with CD73 [4] (this construct after refolding) were 130 U/mg and 577.2 U/mg, respectively. For the same compound, the turnover rate in the data set with CD73 [4] was 856 nmol/min/mg. By pKa is commonly meant the negative logarithm of the acid dissociation constant. Take `Nc1ncnc2c1ncn2[C@@H]1O[C@H](COP(=O)(O)CP(=O)(O)O)[C@@H](O)[C@H]1O` [AMPCP, Adenosin 5'-[α,β-methylene] diphosphoric acid]: the Ki at rat CD73 is 197 ± 5 nM. In addition, the pKa in data set [5] is listed as 8.3. On to `Nc1ncnc2c1ncn2[C@@H]1O[C@H](COP(=O)(O)OP(=O)(O)OP(=O)(O)O)[C@@H](O)[C@H]1O` [ATP], for which the inhibition constant (Ki) is 1500 nM at CD73 [2] (ref 32) and 8900 nM on CD73 [2] (ref 33). For `Nc1ccn([C@@H]2O[C@H](COP(=O)(O)O)[C@@H](O)[C@H]2O)c(=O)n1` [CMP, Cytidine 5′-monophosphate], on CD73 [6], the “percentage activity relative to AMP (100%)” value is reported as 73.4%. On to `Nc1nc2c(ncn2[C@@H]2O[C@H](COP(=O)([O-])[O-])[C@@H](O)[C@H]2O)c(=O)[nH]1.[Na+].[Na+]` [GMP, Guanosin-5'-monophosphat Dinatriumsalz], for which the “percentage activity relative to AMP (100%)” value on CD73 [6] amounted to 33.2%. By IC50 is commonly meant the concentration that inhibits the measured activity by half. At CD73 [7], `Nc1nc2c(ncn2[C@@H]2O[C@H](COP(=O)(O)CP(=O)(O)O)[C@@H](O)[C@H]2O)c(=O)[nH]1` [GMPCP, α,β-Methyleneguanosine 5′-diphosphate sodium salt] registered a half-maximal inhibitory concentration (IC50) of 1420 ± 20 nM and a Ki of 135 ± 2.7 nM. Consider `NC(=O)c1ccc[n+]([C@@H]2O[C@H](COP(=O)([O-])OP(=O)(O)OC[C@H]3O[C@@H](n4cnc5c(N)ncnc54)[C@H](O)[C@@H]3O)[C@@H](O)[C@H]2O)c1` [NAD^+], for which the turnover rate in the data set with CD73 [4] was 5 nmol/min/mg. In the case of `O=c1ccn([C@@H]2O[C@H](COP(=O)([O-])[O-])[C@@H](O)[C@H]2O)c(=O)[nH]1.[Na+].[Na+]` [UMP, Uridin-5'-Monophosphate Dinatriumsalz], the “percentage activity relative to AMP (100%)” value at CD73 [6] is on record as 87.1%. In the case of `O=c1ccn([C@@H]2O[C@H](COP(=O)(O)CP(=O)(O)O)[C@@H](O)[C@H]2O)c(=O)[nH]1` [UMPCP], on rat CD73, the Ki is 1830 ± 530 nM. Consider `Cn1c(=O)c2c(ncn2C)n(C)c1=O` [caffeine], for which, at CD73 [1], the “binding to the nucleoside binding site” value was “did bind to the nucleoside binding site”. As for `Nc1ncnc2c1ncn2[C@H]1C[C@H](O)[C@@H](COP(=O)(O)O)O1` [dAMP, 2′-Deoxyadenosine 5′-monophosphate], the “decrease in absolute activity (relative to AMP) compared with the ribonucleotide equivalent” value at CD73 [6] amounted to 28.8%. Take `Nc1ccn([C@H]2C[C@H](O)[C@@H](COP(=O)(O)O)O2)c(=O)n1` [dCMP, 2′-Deoxycytidine 5′-monophosphate]: the “percentage activity relative to AMP (100%)” value at CD73 [6] is 47.6%. For the compound `Nc1nc2c(ncn2[C@H]2C[C@H](O)[C@@H](COP(=O)(O)O)O2)c(=O)[nH]1` [dGMP, 2′-Deoxyguanosine 5′-monophosphate], at CD73 [6], the “percentage activity relative to AMP (100%)” value was 4.8% and the “decrease in absolute activity (relative to AMP) compared with the ribonucleotide equivalent” value came to 28.4%. For the compound `Cc1cn([C@H]2C[C@H](O)[C@@H](COP(=O)([O-])[O-])O2)c(=O)[nH]c1=O.[Na+].[Na+]` [dTMP, Thymidine 5'-Monophosphate Natriumsalz], the “binding to the nucleoside binding site” value on CD73 [1] is “only low occupancy binding”. The “percentage activity relative to AMP (100%)” value at CD73 [6] is reported as 49.4%.

`O=c1ccn([C@H]2C[C@H](O)[C@@H](COP(=O)(O)CP(=O)(O)O)O2)c(=O)[nH]1` [dUMPCP, 2'-Deoxyuridine-5'-[(α,β)-methyleno]diphosphate, Sodium salt]: on CD73 [7] (calculated from IC50 with the Cheng-Prusoff equation, human deglycosylated CD73 construct, read-out: Ki), the Ki is 374 ± 6.9 nM. At CD73 [7] (comparison between CMPCP and dUMPCP), this compound displayed a loss in affinity of 1.2 fold. Besides, the concentration for half-maximal inhibition (IC50) on CD73 [7] (read-out: IC50) is 3940 ± 10 nM.

With `NC(=O)c1ccc[n+]([C@@H]2O[C@H](COP(=O)([O-])O)[C@@H](O)[C@H]2O)c1` [nicotinamide mononucleotide], the turnover rate in the data set with CD73 [4] is 110 nmol/min/mg. For the compound `Cc1cc2nc3c(=O)[nH]c(=O)nc-3n(C[C@H](O)[C@H](O)[C@H](O)CO)c2cc1C` [riboflavin], the “binding to the nucleoside binding site” value at CD73 [1] was “did bind to the nucleoside binding site”.
